Laboratory results as given in the supplement of paper PMC10949913.

Experiments:
Experiment in all cases: area under concentration-response curve (viability) (AUC (a.u.)); higher = less active
Conditions in all cases: 48 h
NCI-H295R = test system: NCI-H295R
Method in brief: (§1)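 Three adrenocortical carcinoma cell lines were seeded at 500–1,000 cells/well in 5 µL medium in 1,536-well plates. 23 nL of each MIPE 5.0 library compound was added at 11 concentrations. After 48 h (per the protocol name), CellTiter-Glo was added for 15 minutes at room temperature and luminescence was read. Signals were normalised per plate to vehicle and empty-well controls. AC50 and area under the curve came from fitted concentration-response curves, keeping only inhibitory or non-responding curve classes.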

CU-ACC2 = test system: CU-ACC2
Method in brief: as §1

CU-ACC1 = test system: CU-ACC1
Method in brief: as §1

Row | SMILES | area under concentration-response curve (NCI-H295R) | area under concentration-response curve (CU-ACC2) | area under concentration-response curve (CU-ACC1)
1 | COc1ccc(C(=O)CC(=O)c2ccc(C(C)(C)C)cc2)cc1 | 543 | 595 | 
2 | Cc1ccc2c(=O)c3cccc(CC(=O)O)c3oc2c1C | 486 | 540 | 
3 | C[C@@H](NC1=CC=CC=C1C(O)=O)C/2=C/C(=C\N3C(=O)/C=C(\N=C23)N4CCOCC4)C | 543 | 535 | 
4 | O=C(c1ccc(F)cc1)N1CCC[C@H](c2nc(-c3ccc(F)cc3)no2)C1 | 576 | 624 | 
5 | Cc1cc(O)c2c(c1)C(=O)c1cccc(O)c1C2=O | 552 | 604 | 
6 | NC/1=N/C(=O)N/C=C1F | 595 | 633 | 
7 | COC1=CC2=C(C=C1OCCCN3CCCC3)\N=C(N)/C24CCC4 | 547 | 578 | 
8 | CC/C(=C(\c1ccccc1)c1ccc(OCCN(C)C)cc1)c1ccccc1 | 554 | 455 | 
9 | Cc1ccc(NC(=O)[C@H]2CCCN(C(=O)c3c(C)cccc3F)[C@H]2c2ccc(NC3CCCC3)cc2)cc1C(F)(F)F | 521 | 561 | 
10 | Nc1cccc([S+](=O)([O-])N2CCCN([S+](=O)([O-])c3ccc4c(c3)OCCO4)CC2)c1 | 546 | 634 | 
11 | OCc1ccccc1O[C@@H]1O[C@H](CO)[C@@H](O)[C@H](O)[C@H]1O | 563 | 616 | 
12 | NC(=S)N/N=C/c1ncccc1N | 440 | 442 | 
13 | CCCCOc1ccc(CC(=O)NO)cc1 | 573 | 631 | 
14 | CCCC[N+]1(C)[C@@H]2CC(OC(=O)[C@H](CO)c3ccccc3)C[C@H]1[C@@H]1O[C@@H]12 (stereo partly drawn) | 568 | 630 | 
15 | COc1cc2ncnc(Nc3cccc(Cl)c3F)c2cc1OC(=O)N1CCN(C)C[C@H]1C | 531 | 610 | 
16 | O=C(NC[C@H](O)CN1CCc2ccccc2C1)c1ccnc(NC2CCC2)c1 | 539 | 535 | 
17 | Nc1nc(N)c2nc(-c3cccc(Cl)c3)c(N)nc2n1 | 520 | 596 | 
18 | CCN(CC)CCCC(C)Nc1nc(C)cc(Nc2ccc3nc(C)cc(N)c3c2)n1 (stereo not drawn) | 507 | 478 | 
19 | COC(=O)N(CC(=O)O)Cc1cccc(OCc2nc(-c3ccc(Cl)cc3)oc2C)c1 | 452 | 553 | 
20 | NC\1=N\C(=O)N(\C=C1)[C@@H]2O[C@H](CO)[C@@H](O)[C@@H]2O | 504 | 551 | 

Row | SMILES | area under concentration-response curve (NCI-H295R) | area under concentration-response curve (CU-ACC2) | area under concentration-response curve (CU-ACC1)
21 | Cc1cc(NC(=O)Nc2ccc(N(C)C)cc2)c2cc(F)cc(F)c2n1 | 613 | 667 | 
22 | CC(NC(C)(C)C)C(=O)c1cccc(Cl)c1 (stereo not drawn) | 509 | 526 | 
23 | O=C(Oc1ccc([N+](=O)[O-])cc1)N1CCN(Cc2cccc(Oc3ccccc3)c2)CC1 |  | 556 | 531
24 | CCCCC[C@H](O)/C=C/[C@H]1[C@H](O)CC(=O)[C@@H]1CCCCCCC(=O)O |  | 612 | 402
25 | CCC(C)(C)c1ccc(CC(C)CN2C[C@@H](C)O[C@@H](C)C2)cc1 (stereo partly drawn) |  | 504 | 462
26 | C[C@H](NC(=O)C1=C2N=CC=C[N]2N=C1N)\C3=C\C4=CC=CC(=C4C(=O)N3C5=CC=CC=C5)C#CC6=C[N](C)N=C6 |  | 608 | 511
27 | O=C(NCCO[N+](=O)[O-])c1cccnc1 |  | 605 | 566
28 | CCCCCCOC(=O)/N=C(/N)c1ccc(NCc2nc3cc(C(=O)N(CCC(=O)OCC)c4ccccn4)ccc3n2C)cc1 |  | 594 | 523
29 | Cl.NC(CO)C(=O)NNCc1ccc(O)c(O)c1O (stereo not drawn) |  | 627 | 562
30 | CC(C)N(C[C@H]1O[C@@H](n2cnc3c(N)ncnc32)[C@H](O)[C@@H]1O)[C@H]1C[C@@H](CCc2nc3cc(C(C)(C)C)ccc3[nH]2)C1 |  | 598 | 543
31 | F\C1=C\NC(=O)NC1=O |  | 505 | 483
32 | O=C1CC(c2c[nH]c3ccc(F)cc23)C(=O)N1 (stereo not drawn) |  | 424 | 465
33 | C[C@H](NC1=NC=NC2=C1[NH]C=N2)\C3=N\C4=C(C=C(F)C=C4)C(=O)N3C5=CC=CC=C5 |  | 280 | 344
34 | Cc1c(C(=O)Nc2cccc(C(F)(F)F)c2)cc(-c2ccccc2)n1CCCN1CCOCC1 |  | 610 | 573
35 | CC/C(=C(/c1ccc(/C=C/C(=O)O)cc1)c1ccc2[nH]ncc2c1)c1ccc(F)cc1Cl |  | 508 | 501
36 | Cc1cc(C(=O)Nc2cc(Oc3ccc4nc(NC(=O)C5CC5)cn4n3)ccc2C)n(C)n1 |  | 606 | 511
37 | CC(=O)Oc1cc2c(s1)CCN(C(C(=O)C1CC1)c1ccccc1F)C2 (stereo not drawn) |  | 476 | 492
38 | COc1ccc2[n-]c([S+]([O-])Cc3ncc(C)c(OC)c3C)nc2c1 (stereo not drawn) |  | 398 | 387
39 | CN1C(=N)N[C@](C)(c2cc(NC(=O)c3ccc(F)cn3)ccc2F)C[S+]1(=O)[O-] |  | 611 | 563
40 | CC(=O)OCC(=O)[C@@]1(O)CC[C@H]2[C@@H]3CCC/4=C/C(=O)CC[C@]4(C)[C@H]3C(=O)C[C@]12C |  | 617 | 531

Row | SMILES | area under concentration-response curve (NCI-H295R) | area under concentration-response curve (CU-ACC2) | area under concentration-response curve (CU-ACC1)
41 | COC1=C(CN(C)C)C=C(OC)C(=C1)C/2=C/N(C)C(=O)C3=C2C=CN=C3 |  | 597 | 516
42 | CCC\C1=C\C(=O)NC(=S)N1 |  | 545 | 467
43 | Cn1cc(C[C@@H](N)C(=O)O)c2ccccc21 |  | 658 | 619
44 | CCCCOc1ccc(C(=O)Nc2ccc(F)cc2F)cc1 |  | 586 | 514
45 | CC1(C)O[C@@H]2C[C@H]3[C@@H]4C[C@H](F)C/5=C/C(=O)/C=C\[C@]5(C)[C@@]4(F)[C@@H](O)C[C@]3(C)[C@@]2(O1)C(=O)CO |  | 586 | 485
46 | CNC(=O)c1ccc(N2C(=S)N(c3cnc(C#N)c(C(F)(F)F)c3)C(=O)C23CCC3)cc1F |  | 565 | 505
47 | COc1ccc2[nH]c([S+]([O-])Cc3ncc(C)c(OC)c3C)nc2n1 (stereo not drawn) |  | 637 | 542
48 | COCCCOc1cc(C[C@@H](C[C@H](N)[C@@H](O)C[C@H](C(=O)NCC(C)(C)C(N)=O)C(C)C)C(C)C)ccc1OC |  | 648 | 564
49 | CCOC(=O)N[C@@H]1CC[C@@H]2[C@@H](C1)C[C@H]1C(=O)O[C@H](C)[C@H]1[C@H]2/C=C/c1ccc(-c2cccc(F)c2)cn1 |  | 511 | 537
50 | COc1c(C)cc(NC(=O)c2nn(Cc3ccc(F)cc3)c3c2CN(C(=O)c2ccc[nH]2)C[C@]3(C)C(N)=O)cc1C |  | 646 | 567
51 | ClC1=CC=C(C=C1)C(C#N)C2=C(Cl)C=C(C=C2Cl)N3\N=C/C(=O)NC3=O (stereo not drawn) |  | 626 | 524
52 | CC1=C(C=CC=C1)N2\C(=N/C3=C(C(=CC=C3)C)C2=O)C[N]4N=CC5=C4N=CN=C5N |  | 614 | 583
53 | Cn1ccc2cc3c(cc21)CCN3C(=O)Nc1cccnc1 |  | 490 | 455
54 | C[N]1C=C(C2=CC=CC=C12)\C3=C(\C(=O)NC3=O)C4=C[N](C5CCN(CC5)CC6=NC=CC=C6)C7=C4C=CC=C7 |  | 500 | 494
55 | O=C(Nc1cccnc1)c1cc(-c2ccnc(F)c2)ccc1OCc1ccccc1 |  | 615 | 514
56 | Clc1ccc(COC(Cn2ccnc2)c2ccc(Cl)cc2Cl)c(Cl)c1 (stereo not drawn) |  | 308 | 265
57 | Nc1nc(-c2nn(Cc3ccccc3F)c3ncccc23)nc(N)c1N1CCOCC1 |  | 599 | 605
58 | CCc1cc(/C(C)=N/OCc2ccc(C3CCCCC3)c(C(F)(F)F)c2)ccc1CN1CC(C(=O)O)C1 |  | 526 | 462
59 | C[C@]12CC[C@@H]3c4ccc(O)cc4CC[C@H]3[C@@H]1C[C@@H](O)[C@@H]2O |  | 398 | 388
